The test system of assay [1] is HCV genotype 1a replicon cell line (APC89; Huh7.5 cell background). The assay is described as follows: HCV Genotype 1a Replicon Assay (NS3-specific protease activity readout). The format is cell-based. The conditions noted are these: Hepatitis C virus, 72 hour incubation, read-out: Genotype 1a (pEC50 class, HCV genotype 1a replicon assay) (converted). The method in brief:
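EC50 values came from a 4-parameter robust fit of fluorescence (ex 340, em 509 nm) produced by NS3-specific protease in lysates, assayed with 15 μM FRET substrate for 20 min at 37° C, after 48 or 72 hours of compound exposure (0.5% DMSO) of Huh7.5-derived APC89 genotype 1a replicon cells.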
(In general: In antiviral work, replicon cells carry a viral genome segment that copies itself.)

Assay [2] concerns HCV genotype 1b replicon cell line (APC144; Huh7 cell background). Nature of the assay: HCV Genotype 1b Replicon Assay (Renilla luciferase readout). The conditions noted are these: Hepatitis C virus, Huh-7; read-out: Genotype 1b (pEC50 class, HCV genotype 1b replicon assay) (converted). The format is cell-based. The method in brief:
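Reported as pEC50 derived from a 4-parameter fit of Renilla luciferase activity against concentration. Replicon cells (APC144, Huh7 background) were exposed to compound for 48 h in G418-free medium with final 0.5% DMSO, after seeding at 10,000 cells/well and 4 h adherence.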

Consider three molecules from patent US8921372B2, “Inhibitors of hepatitis C virus” (Theravance Biopharma R&D IP, LLC, priority 2010, dated 2014).

Each structure is given as a SMILES string.

Turning to `CNC(=O)N1CCN(c2ccc(C(=O)Nc3ccc(-c4ccc(-c5c[nH]c([C@@H]6CCCN6C(=O)[C@@H](NC(=O)OC)C(C)C)n5)cc4)c(C(F)(F)F)c3)cn2)[C@H](C)C1` [Example 36], the EC50 in assay [1] is 100 to 1000 pM; in assay [2], below 100 pM.

Consider `COC(=O)N[C@H](C(=O)N1CCC[C@H]1c1nc(-c2ccc(-c3ccc(NC(=O)c4ccc(N5CCN(C(=O)C6CC6)CC5)cc4)cc3F)cc2)c[nH]1)C(C)C` [Example 8, {(S)-1-[(S)-2-(4-{4′-[4-(4-cycloproanecarbonyl-piperazin-1-yl)-benzoylamino]-2′-fluoro-biphenyl-4-yl}-1H-imidazol-2-yl)-pyrrolidine-1-carbonyl]-2-methyl-propyl}-carbamic acid methyl ester], for which the EC50 was 1000 to 10000 pM in assay [1] and below 100 pM in assay [2].

As to `CNC(=O)N1C[C@@H](C)N(c2ccc(C(=O)Nc3cc(OC(F)(F)F)c(-c4ccc(-c5c[nH]c([C@@H]6CCCN6C(=O)[C@@H](NC(=O)OC)C(C)C)n5)cc4)cc3F)cn2)C[C@@H]1C` [Example 58], the EC50 in assay [1] and in assay [2] was below 100 pM throughout.
